Source: ChEMBL document CHEMBL1157158, “Synthesis and neuropharmacological evaluation of 2-aryl- and alkylapomorphines” (Bioorg Med Chem, 2008)

Legend:
D(2) dopamine receptor = D(2) dopamine receptor (Rattus norvegicus, UniProt P61169); assay: Displacement of [3H]spiperone from rat dopamine D2 receptor in brain striatal membrane; type: cell membranes
Mus musculus [1] = assay: Dopaminergic activity in CD1 mouse striatum assessed as dopamine turn over at 3.29 umol/kg, sc relative to control; type: functional
Mus musculus [2] = assay: Dopaminergic activity in CD1 mouse tuberculum olfactorium assessed as dopamine turn over at 3.29 umol/kg, sc relative to control; type: functional
D(3) dopamine receptor = D(3) dopamine receptor (Rattus norvegicus, UniProt P19020); assay: biochemical
Sequence of D(3) dopamine receptor (P19020 whole entry): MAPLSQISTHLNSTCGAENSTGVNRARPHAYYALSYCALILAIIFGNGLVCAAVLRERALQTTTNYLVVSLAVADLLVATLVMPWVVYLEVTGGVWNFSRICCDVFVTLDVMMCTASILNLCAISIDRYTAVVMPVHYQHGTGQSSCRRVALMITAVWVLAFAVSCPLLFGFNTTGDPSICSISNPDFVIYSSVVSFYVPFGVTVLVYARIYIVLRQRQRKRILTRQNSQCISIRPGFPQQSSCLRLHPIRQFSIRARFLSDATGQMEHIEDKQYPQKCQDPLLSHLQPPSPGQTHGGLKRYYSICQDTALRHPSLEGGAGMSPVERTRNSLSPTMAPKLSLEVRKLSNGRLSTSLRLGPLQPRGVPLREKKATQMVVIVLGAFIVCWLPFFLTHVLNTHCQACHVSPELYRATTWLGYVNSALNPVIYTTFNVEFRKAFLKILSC
Description: Displacement of [3H]spiperone from rat recombinant dopamine D3 receptor expressed in SF9 cells

Sequence of D(2) dopamine receptor (P61169 whole entry): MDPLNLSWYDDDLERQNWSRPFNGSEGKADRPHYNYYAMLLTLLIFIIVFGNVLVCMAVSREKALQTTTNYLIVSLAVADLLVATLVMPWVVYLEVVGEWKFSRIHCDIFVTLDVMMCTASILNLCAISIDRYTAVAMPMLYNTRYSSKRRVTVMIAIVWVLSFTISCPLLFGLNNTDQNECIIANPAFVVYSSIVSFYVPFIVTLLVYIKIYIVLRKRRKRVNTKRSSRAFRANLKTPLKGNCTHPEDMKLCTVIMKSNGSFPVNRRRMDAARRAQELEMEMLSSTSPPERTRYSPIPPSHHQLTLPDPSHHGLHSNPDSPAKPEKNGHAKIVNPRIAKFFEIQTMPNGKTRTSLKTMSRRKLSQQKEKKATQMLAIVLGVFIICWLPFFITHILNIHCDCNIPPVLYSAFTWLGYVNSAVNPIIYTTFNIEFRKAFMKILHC

Structure (SMILES)	IC50 (D(2) dopamine receptor)	Ki (D(2) dopamine receptor)	Activity (Mus musculus [1])	Activity (Mus musculus [2])	IC50 (D(3) dopamine receptor)	Ki (D(3) dopamine receptor)
CN1CCc2cc(-c3ccc(O)cc3)cc3c2[C@H]1Cc1ccc(O)c(O)c1-3.Cl	0.0085 µM	0.00414 µM	43.6%	39.6%	0.0037 µM	0.00178 µM
CN1CCc2cccc3c2[C@H]1Cc1ccc(O)c(O)c1-3.CN1CCc2cccc3c2[C@H]1Cc1ccc(O)c(O)c1-3.Cl.Cl.O [APOMORPHINE HYDROCHLORIDE]	–	–	48.6%	57.7%	–	–
CN1CCc2cc(-c3ccccc3)cc3c2[C@H]1Cc1ccc(O)c(O)c1-3.Cl	0.0233 µM	0.0117 µM	44.2%	50.9%	0.0147 µM	0.0077 µM
CN(C)c1ccc(-c2cc3c4c(c2)-c2c(ccc(O)c2O)C[C@H]4N(C)CC3)cc1.Cl.Cl	0.484 µM	0.242 µM	52.3%	84.5%	0.178 µM	0.0784 µM
Cc1cc2c3c(c1)-c1c(ccc(O)c1O)C[C@H]3N(C)CC2.Cl	0.043 µM	0.0207 µM	42.3%	43.6%	0.0826 µM	0.0401 µM
CN1CCc2cc(-c3cccc4c3oc3ccccc34)cc3c2[C@H]1Cc1ccc(O)c(O)c1-3.Cl	3.26 µM	1.63 µM	92%	106.1%	0.0494 µM	0.0223 µM
